The text below walks through data of patent US8748484B2, “Organometallic anti-cancer complexes” (Research Foundation of The City University of New York, priority 2011, dated 2014).

Holding throughout (test): Antiproliferative activity, viable cell count (trypan blue) after 96 hours
Assay type in all cases: cell-based, human

In assay [1] the test system is HT-29. The conditions noted are these: for IC50: HT-29, Colon, 96 hours, 50% growth inhibition vs DMSO, Compound 4 values above 25 μM are estimates from the plot 1-25 μM. The procedure:
(§1) The antiproliferative activity of compounds 1-4 was determined in the seven types of human cancer cell lines K562 (Chronic Myelogenous Leukemia, CML), HT-29 (colon), and HL-60 (Acute Myloid Leukemia, AML), DU-145 (prostate), MCF-7 (breast), and GRANTA-519 (Mantle Cell Leukemia, MCL), and NSCL (non small cell lung carcinoma) and compared with cisplatin.
(§2) Human cancer cells were plated in twelve-well dishes at a cell density of 2.5×10^4 cells/ml/well. The cells were treated, in duplicate, 24 hours later with increasing concentrations of each compound or cisplatin from Sigma (Table 3). The total number of viable cells was determined after 96 hours later by cell counting by hemacytometer and trypan blue staining. The percentage of viable cells remaining was calculated as follows: number of viable cells (compound treated)/number of viable cells (DMSO treated)*100. Compound 1 dose response assay plot (FIG. 3) is the average percent viable cells of the treated compared to the vehicle (DMSO) treated cells. DU-145, MCF-7, HT-29, H460 cells were grown in DMEM and K562, HL-60, Granata-519 cells were grown in RPMI medium both supplemented with 10% FBS (cell Generation) and 1 unit penicillin. Cells were routinely grown and treated at 37° C. under 90% humidity. The IC50 (50% growth inhibition as compared to DMSO treated control) values in micromoles were determined by extrapolation from the dose response curves. Dose response curves were generated by plotting the percentage of cells at each concentration versus concentration tested. Compound 1 was chosen to produce more detailed growth curves based on overall highest activity profile. Similarly, cells were treated at increasing concentrations of cisplatin and detailed growth curves were generated (FIG. 4). Thus the activity of compound 1 was compared to cisplatin.

Assay [2] has as its system H460. The conditions noted are these: for IC50: H460, NSCLC, 96 hours, 50% growth inhibition vs DMSO, Compound 4 values above 25 μM are estimates from the plot 1-25 μM. As for the experimental part: as §1, §2
In assay [3] the test system is HL-60. The conditions noted are these: for IC50: HL-60, AML, 96 hours, 50% growth inhibition vs DMSO. The procedure:
as §1, §2

In assay [4] the test system is GRANTA-519. The conditions noted are these: for IC50: GRANTA-519, MCL, 96 hours, 50% growth inhibition vs DMSO. As for the experimental part: as §1, §2
Assay [5] concerns MCF-7. The conditions noted are these: for IC50: MCF-7, Breast, 96 hours, 50% growth inhibition vs DMSO, Compound 4 values above 25 μM are estimates from the plot 1-25 μM. As for the experimental part: as §1, §2
The subject of assay [6] is K562. The conditions noted are these: for IC50: K562, CML, 96 hours, 50% growth inhibition vs DMSO, Compound 4 values above 25 μM are estimates from the plot 1-25 μM. As for the experimental part: as §1, §2
Assay [7] has as its system DU145. The conditions noted are these: for IC50: DU145, Prostate, 96 hours, 50% growth inhibition vs DMSO. As for the experimental part: as §1, §2

Regarding `N.N.[Cl][Pt][Cl]` [Cisplatin, reference compound], the IC50 (in general, the concentration that gives 50% inhibition) in assay [1] was 3000 nM; in assay [2] it was 750 nM; in assay [3], 750 nM; in assay [4], 250 nM; in assay [5], 1500 nM; in assay [6], 1500 nM. This compound gave a concentration for half-maximal inhibition (IC50) in assay [7] of 1000 nM.
For the compound `CC1=C2[O][Ru-]3(=[C]=O)(=[C]=O)([O+]=C2C=CO1)[Ru](=[C]=O)(=[C]=O)(=[C]=O)(=[C]=O)[Ru-]31(=[C]=O)(=[C]=O)[O]C2=C(C)OC=CC2=[O+]1` [Cmpd 1, [Ru3(CO)8(C12H10O6)]], the half-inhibitory concentration (IC50) was 500 nM in assay [1]; 750 nM in assay [2]; 100 nM in assay [3]; 75 nM in assay [4]; 400 nM in assay [5]; 300 nM in assay [6]. Further, the IC50 in assay [7] was determined as 500 nM. For the same compound, the “anticancer activity relative to cisplatin” value in assay [1] (HT-29, times higher than cisplatin) is listed as 5-7 times; in assay [2] (NSCL (non small cell lung carcinoma)), “the same as cisplatin”; in assay [3] (HL-60, times higher than cisplatin), 5-7 times; in assay [4] (GRANTA-519, times more potent than cisplatin), 2-3 times; in assay [5] (MCF-7, times more potent than cisplatin), 2-3 times; in assay [6] (K562, times higher than cisplatin), 5-7 times. In assay [7] (DU-145, times more potent than cisplatin), the “anticancer activity relative to cisplatin” value is recorded as 2-3 times.
As for `CC1=C2[O][Ru-]3(=[C]=O)(=[C]=O)([O+]=C2C=CO1)[Ru](=[C]=O)(=[C]=O)(=[C]=O)([P](c1ccccc1)(c1ccccc1)c1ccccc1)[Ru-]31(=[C]=O)(=[C]=O)[O]C2=C(C)OC=CC2=[O+]1` [Cmpd 2, [Ru3(CO)7(C12H10O6)(PPh3)]], the IC50 in assay [1] is 5000 nM; in assay [2] it was 5000 nM; in assay [3], 750 nM; in assay [5], 2500 nM; in assay [6] it was 2500 nM; in assay [7] it was 2500 nM.
[Ru3(CO)6(C12H10O6)(dppe)] [Cmpd 4] displayed a half-maximal inhibitory concentration (IC50) in assay [7] of 10000 nM.
As to [Ru3(CO)6(C12H10O6)(dppm)] [Cmpd 3], the IC50 in assay [1] was above 100000 nM; in assay [2] it was 70000 nM; in assay [3] it was 25000 nM; in assay [5], 75000 nM; in assay [6], 30000 nM; in assay [7] it was 25000 nM.
